Reference: patent US5536719A, “Benzothiadiazine compound” (Adir et Compagnie, priority 1994, dated 1996)

Legend:
[1] = test system: AMPA receptor (rat cortex mRNA expressed in Xenopus oocytes); experiment: excitatory currents induced by AMPA in Xenopus oocytes (voltage-clamp); format: cell-based, rat (male Wistar) receptors expressed in Xenopus oocytes; settings: for EC2X (concentration which doubles the intensity of the current induced by AMPA alone) / EC5X (concentration which increases five-fold the intensity of the current induced by AMPA alone): Xenopus oocytes, rat cortex mRNA, agonist AMPA (30 mM [sic])
Experimental: Study of the excitatory currents induced by AMPA in Xenopus oocytes mRNAs are prepared from male Wistar rat cerebral cortex by the guanidium thiocyanate/phenol/chloroform method. The poly(A^+) mRNAs are isolated by chromatography on oligo-dT cellulose and injected at an amount of 50 ng per oocyte. The oocytes are left to incubate for 2 to 3 days at 18° C. in order to allow expression of the receptors, and are then stored at 8°-10° C. The electrophysiological recording is performed in a plexiglass® chamber at 20°-24° C. in OR2 medium (J. Exp. Zool., 1973, 184, 321-334) by the "voltage-clamp" method with 2 electrodes, a 3rd electrode placed in the bath serving as reference. All the compounds are applied via the incubation medium and the electric current is measured at the end of the period of application. The AMPA is used at a concentration of […]. The concentration which doubles (EC2X) or which increases five-fold (EC5X) the intensity of the current induced by AMPA alone (50 to 100 nA) is determined for each compound studied.

kainate (KA) = experiment: currents induced by kainate (KA) in Xenopus oocytes (selectivity); format: cell-based, rat (male Wistar) receptors expressed in Xenopus oocytes
NMDA = experiment: currents induced by NMDA in Xenopus oocytes (selectivity); format: cell-based, rat (male Wistar) receptors expressed in Xenopus oocytes
[2] = test system: slice of hippocampus (dentate gyrus EPSP); experiment: excitatory postsynaptic potentials (EPSP) induced by electrical stimulation on a slice of hippocampus; format: cell-based, male Wistar rat; settings: compared with reference compounds, racemic mixture and R isomer
Experimental: Study of the synaptic excitatory potentials induced by electrical stimulation on a slice of hippocampus
Transverse slices of hippocampus ([…]) from a male Wistar rat are prepared using a "tissue chopper" and then incubated for 45 minutes in calcium-free medium containing 10 mM Mg^++. They are then stabilized in Krebs adjusted to pH 7.35 and oxygenated with O2 /CO2 (95%/5%) at room temperature.
The slices are submerged at 35° C. and the excitatory postsynaptic potentials (EPSP) are recorded in the dendritic field of the […] of the dentate gyms during stimulation ([…]) every 30 seconds of the perforating route via a tungsten bipolar electrode.
The EPSPs are acquired and analyzed by means of an A-D converter, a TL-1 interface and "pCLAMP" software.
The amplitude and duration of the EPSPs are evaluated on the negative wave relative to the base current.
The compounds are applied for 10 to 20 minutes in the superfusion bath containing MgSO4 (1 mM) in order to block the activation of the NMDA receptors. The concentration increasing the amplitude of the EPSP by 50% (A50) is determined for each compound.

[3] = Il Farmaco, Ed. Sc., 1978, 33, 713-720; cited from earlier work
[4] = test system: AMPA receptors of neuronal cells; settings: Journal of Neurochemistry, 1992, 58, 1199-1204; cited from earlier work

Row | Compound | EC2X (concentration which doubles the intensity of the current induced by AMPA alone) [1] [µM] | EC5X (concentration which increases five-fold the intensity of the current induced by AMPA alone) [1] [µM] | also measured
1 | O=S1(=O)N[C@@H]2CCCN2c2ccccc21 [R isomer] | 300 | > 1000 | 
2 | O=S1(=O)N[C@H]2CCCN2c2ccccc21 [Example 1, (3aS)-5,5-Dioxo-2,3,3a,4-tetrahydro-1H-pyrrolo[2,1-c][1,2,4]benzothiadiazine] | 35 | 70 | potentiation of the excitatory effects of AMPA ([1]; compared with reference compounds, racemic mixture and R isomer): very strongly potentiates the excitatory effects of AMPA; EC2X, AMPA ([1]; selectivity table, agonist AMPA): 35 µM; potentiation of the current (KA agonist) (kainate (KA)): no potentiation of the current is observed; EC2X, KA (kainate (KA); selectivity table, agonist kainate (KA)): > 300 µM; potentiation of the current (NMDA agonist) (NMDA): no potentiation of the current is observed; EC2X, NMDA (NMDA; selectivity table, agonist NMDA): > 300 µM; increase of the amplitude of the EPSP [2]: increases the amplitude of the EPSP at lower doses than the reference compounds, the racemic mixture or the R isomer
3 | O=S1(=O)NC2CCCN2c2ccccc21 (racemic) [Racemic mixture, 5,5-Dioxo-2,3,3a,4-tetrahydro-1H-pyrrolo[2,1-c]-[1,2,4]benzothiadiazine, reference compound] | 60 | 160 | hypotensive and bradycardiac activities [3]: having hypotensive and bradycardiac activities
4 | CC1=NS(=O)(=O)c2cc(Cl)ccc2N1 [Diazoxide, reference compound] | 400 | 1000 | 
5 | COc1ccc(C(=O)N2CCCC2=O)cc1 [Aniracetam, reference compound] | 1300 | 5000 | modulation of AMPA receptors of neuronal cells [4]: positively modulating the AMPA receptors of neuronal cells
